The test system of data set [1] is Leishmania donovani. The data set is described as follows: Antileishmanial activity against amastigotes of Leishmania donovani MHOM/SD/1962/1S-Cl2d infected in human THP1 cells assessed as parasite growth inhibition at 1 uM after 24 hrs by AlamarBlue viability assay. The conditions noted are these: THP-1, 24 h. A general note: Alamar Blue is a resazurin reagent that responds to reducing activity.

Data set [2] is described as follows: Selectivity index, ratio of IC50 for rat L6 cells to IC50 for Trypanosoma cruzi Tulahuen C2C4 amastigotes. Type of data set: toxicity, cell-based. The settings on record: read-out: Ratio IC50.
Data set [3] deals with Leishmania donovani. Nature of the data set: Antileishmanial activity against axenic amastigotes of Leishmania donovani MHOM/SD/1962/1S-Cl2d infected in human macrophages at 5 uM. Format: functional.
The nature of data set [4]: Selectivity index, ratio of IC50 for human THP1 cells to IC50 for axenic amastigotes of Leishmania donovani MHOM/SD/1962/1S-Cl2d infected in human THP1 cells. Type of data set: toxicity, cell-based, THP-1. The settings on record: read-out: Ratio IC50.
The subject of data set [5] is Leishmania donovani. Nature of the data set: Antileishmanial activity against axenic amastigotes of Leishmania donovani MHOM/SD/1962/1S-Cl2d […] assessed as parasite growth inhibition after 24 hrs by AlamarBlue viability assay. Type of data set: functional, organism-based.
Data set [6] relates to Leishmania donovani. Nature of the data set: Antileishmanial activity against axenic amastigotes of Leishmania donovani MHOM/SD/1962/1S-Cl2d infected in human THP1 cells assessed as parasite growth inhibition at 50 uM after 24 hrs by AlamarBlue viability assay. The settings on record: read-out: GI. Type of data set: functional.
In data set [7] the test system is Leishmania donovani. Nature of the data set: Antileishmanial activity against axenic amastigotes of Leishmania donovani MHOM/SD/1962/1S-Cl2d infected in human THP1 cells assessed as parasite growth inhibition at 15 uM after 24 hrs by AlamarBlue viability assay. Type of data set: functional. The conditions noted are these: read-out: GI.
The subject of the next data set is L6. Nature of the data set: Cytotoxicity against rat L6 cells after 72 hrs by AlamarBlue dye based fluorimetric method. Type of data set: cell-based. The conditions noted are these: L6, 72 h.
Data set [8] has as its system Trypanosoma cruzi. Nature of the data set: Antitrypanosomal activity against trypomastigote form of Trypanosoma cruzi Tulahuen C2C4 expressing LacZ gene infected in rat L6 cells after 96 hrs by photometric method. Type of data set: functional, organism-based. The settings on record: Tulahuen C2C4, L6, 96 h.
In data set [9] the test system is Leishmania donovani. The data set is described as follows: Selectivity for axenic amastigotes of Leishmania donovani MHOM/SD/1962/1S-Cl2d infected in human macrophages over axenic amastigotes of Leishmania donovani MHOM/SD/1962/1S-Cl2d infected in human THP1 cells. Type of data set: functional, THP-1.
The subject of data set [10] is Trypanosoma cruzi. Nature of the data set: Potency index, ratio of IC50 for benznidazole to IC50 for test compound against trypomastigote form of Trypanosoma cruzi Tulahuen C2C4 expressing LacZ gene infected in rat L6 cells. Format: functional.
The nature of data set [11]: Cytotoxicity against human THP1 cells after 48 hrs by AlamarBlue viability assay. Format: cell-based. The conditions noted are these: THP-1, 48 h.
In data set [12] the test system is Trypanosoma cruzi. The data set is described as follows: Antitrypanosomal activity against intracellular form of Trypanosoma cruzi. Type of data set: functional, organism-based.
Data set [13] can be described thus: Selectivity index, ratio of IC50 for African green monkey Vero cells to IC50 for metacyclic form of Trypanosoma cruzi SN3. Format: toxicity, cell-based. The settings on record: read-out: Ratio IC50.
For data set [14], the system named is Trypanosoma cruzi. Nature of the data set: Antitrypanosomal activity against metacyclic form of Trypanosoma cruzi SN3 infected in African green monkey Vero cells after 72 hrs by Giemsa staining. Type of data set: functional, organism-based.

One may read the inhibition as the share of the control response that was lost under treatment. Take `C[C@@H]1[C@H](O)[C@@H](C)/C=C/C=C/C=C/C=C/C=C/C=C/C=C/[C@H](O[C@@H]2O[C@H](C)[C@@H](O)[C@H](N)[C@@H]2O)C[C@@H]2O[C@](O)(C[C@@H](O)C[C@@H](O)[C@H](O)CC[C@@H](O)C[C@@H](O)CC(=O)O[C@H]1C)C[C@H](O)[C@H]2C(=O)O` [AMPHOTERICIN B]: the inhibition at 1 µM with Leishmania donovani [1] is over 90%.

In general, IC50 refers to the concentration at which inhibition is half-maximal. Take `C=CC(=O)NC[C@]1(C)CCC[C@]2(C)c3ccc(C(C)C)cc3CC[C@@H]12`: the figures for the selectivity ratio (in [2]; in data set [4]; in the data set on Leishmania donovani [9]) were 58, 63 and 6, respectively. In addition, the inhibition at 5 µM in the data set on Leishmania donovani [3] was 94.7%. The IC50 in the data set on Leishmania donovani [5] came to 0.37 µM; in the data set with L6, 36.7 µM; with Trypanosoma cruzi [8] it was 0.6 µM; in data set [11] it was 23.2 µM. For the same compound, the inhibition of growth at 50 µM in the data set with Leishmania donovani [6] turned out to be 99.8%. Further, the inhibition of growth at 15 µM with Leishmania donovani [7] was found to be 99.6%. Moreover, the “Ratio IC50” value in the data set on Trypanosoma cruzi [10] came out at 3.5.

In the case of `CC(C)c1ccc2c(c1)CC[C@H]1[C@](C)(CNC(=O)/C=C\C(=O)O)CCC[C@]21C`, the figures for the selectivity ratio in data set [2] and in data set [4] were 4 and 76, respectively. This compound also displayed an inhibition at 5 µM in the data set on Leishmania donovani [3] of 34.7%. Also, the half-maximal inhibitory concentration (IC50) is 1.9 µM with Leishmania donovani [5], 33.5 µM in the data set on L6, 9.5 µM in the data set with Trypanosoma cruzi [8] and 145 µM in data set [11]. Moreover, the inhibition of growth at 50 µM in the data set on Leishmania donovani [6] came to 98.8%. For the same compound, the inhibition of growth at 15 µM in the data set on Leishmania donovani [7] turned out to be 90.7%.

For the compound `CC(C)c1ccc2c(c1)CC[C@H]1[C@](C)(CNC(=O)CCC(=O)O)CCC[C@]21C`, the inhibition of growth at 50 µM in the data set on Leishmania donovani [6] was determined as 98.1%. Besides, the inhibition of growth at 15 µM in the data set with Leishmania donovani [7] amounted to 55%.

Turning to `CC(C)c1ccc2c(c1)CC[C@H]1[C@](C)(CNC(=O)/C=C/c3ccc([N+](=O)[O-])cc3)CCC[C@]21C`, in the data set on Leishmania donovani [6], the inhibition of growth at 50 µM is 42.7%.

With `CC(C)c1cc2c(c(O)c1O)[C@@]1(C)CCCC(C)(C)C1=C(O)C2=O` [14-DEOXYCOLEON U], half-maximal inhibition in the data set with Trypanosoma cruzi [12] (IC50) required 25.7 µM.

As to `CC(C)c1ccc2c(c1)CC[C@H]1[C@](C)(CNC(=O)/C=C/c3ccccc3)CCC[C@]21C`, the inhibition of growth at 50 µM in the data set with Leishmania donovani [6] amounted to 42.4%.

Consider `CC(C)c1ccc2c(c1)CC[C@H]1[C@](C)(CNC(=O)c3ccccc3C(=O)O)CCC[C@]21C`, for which the inhibition of growth at 50 µM in the data set with Leishmania donovani [6] turned out to be 98.5%. In addition, the inhibition of growth at 15 µM with Leishmania donovani [7] was 34.9%.

As for `COC(=O)[C@]1(C)CCC[C@]2(C)C3=C(CC[C@@H]12)C(=O)C(C(C)C)=CC3=O`, in data set [13], the selectivity ratio came out at 45. This compound displayed an IC50 with Trypanosoma cruzi [14] of 17.3 µM.

For `CC(C)c1ccc2c(c1)CC[C@H]1[C@](C)(CNC(=O)c3ccc[nH]3)CCC[C@]21C`, the selectivity ratio in [4] came out at 10. For the same compound, the concentration for half-maximal inhibition (IC50) in the data set with Leishmania donovani [5] was determined as 3.2 µM; in data set [11] it was 33.3 µM. Moreover, in the data set on Leishmania donovani [6], the inhibition of growth at 50 µM stood at 99.1%. Further, the inhibition of growth at 15 µM in the data set with Leishmania donovani [7] was 90.6%.

As to `CC(C)c1ccc2c(c1)CC[C@H]1[C@](C)(CNC(=O)c3nccnc3C(=O)O)CCC[C@]21C`, the inhibition of growth at 50 µM in the data set with Leishmania donovani [6] worked out at 9.4%.

Regarding `CCCC(=O)NC[C@]1(C)CCC[C@]2(C)c3ccc(C(C)C)cc3CC[C@@H]12`, the selectivity ratio in [4] is 11. Moreover, the values for the IC50 (in the data set on Leishmania donovani [5]; in data set [11]) were 5.1 µM and 56.3 µM, respectively. For the same compound, the inhibition of growth at 50 µM in the data set on Leishmania donovani [6] was found to be 96.6%. In the data set on Leishmania donovani [7], the inhibition of growth at 15 µM came out at 73.2%.

Take `C#CC(=O)NC[C@]1(C)CCC[C@]2(C)c3ccc(C(C)C)cc3CC[C@@H]12`: in data set [4], the selectivity ratio is under 1. Further, the IC50 with Leishmania donovani [5] is 4.1 µM; in data set [11], under 3 µM. Also, the inhibition of growth at 50 µM with Leishmania donovani [6] amounted to 99.8%. The inhibition of growth at 15 µM with Leishmania donovani [7] is 98.1%.

Consider `CC(C)c1ccc2c(c1)CC[C@H]1[C@](C)(CN)CCC[C@]21C`, for which the selectivity ratio in [2] amounted to 1. Besides, the inhibition of growth at 50 µM with Leishmania donovani [6] is 68.7%. In addition, the 50% inhibitory concentration (IC50) came out at 6.5 µM in the data set with L6 and 7.4 µM in the data set on Trypanosoma cruzi [8].

As to `CC(=O)NC[C@]1(C)CCC[C@]2(C)c3ccc(C(C)C)cc3CC[C@@H]12`, the selectivity ratio in data set [2] worked out at 6; in [4], 14. Further, the 50% inhibitory concentration (IC50) turned out to be 2.4 µM in the data set with Leishmania donovani [5], 24.3 µM with L6, 3.7 µM in the data set with Trypanosoma cruzi [8] and 33.3 µM in data set [11]. Moreover, the inhibition of growth at 50 µM in the data set with Leishmania donovani [6] was 98.5%. In the data set with Leishmania donovani [7], the inhibition of growth at 15 µM is 96%.

Regarding `CC(C)c1ccc2c(c1)CC[C@H]1[C@](C)(CNC(=O)c3ccccc3)CCC[C@]21C`, the inhibition of growth at 50 µM in the data set with Leishmania donovani [6] is 95.7%. In addition, the inhibition of growth at 15 µM in the data set on Leishmania donovani [7] came to 56.3%.
